In BindingDB's records for doi:10.1021/jm00007a018 (Laboratorios Menarini, 1995):

Molecular target: Platelet-activating factor receptor (Oryctolagus cuniculus)
Test: […] was measured as the IC50 for aggregation of washed rabbit platelets after incubation for 30 min at 37 C.

SMILES | IC50 [µM]
CCCCCCCCCCCCCCCCC(=O)COCC(COP(=O)([O-])OCC[N+](C)(C)C)OC (centres undefined) [2-methoxy-3-(2-oxooctadecyloxy)propyl-2-trimethylammonioethylphosphorate] | > 200
COC(COCCCCCCCCCCC(O)c1ccccc1)COP(=O)([O-])OCC[N+](C)(C)C (centres undefined) [3-(11-hydroxy-11-phenylundecyloxy)-2-methoxypropyl-2-trimethylammonioethylphosphorate] | > 200
CCCCCCCCCCCC(C)CCCCCCOCC(COP(=O)([O-])OCC[N+](C)(C)C)OC (centres undefined) [2-methoxy-3-(7-methyloctadecyloxy)propyl-2-trimethylammonioethylphosphorate] | > 200
COC(COCCCCCCCCCCC(=O)c1ccccc1)COP(=O)([O-])OCC[N+](C)(C)C (centres undefined) [2-methoxy-3-(11-oxo-11-phenylundecyloxy)propyl-2-trimethylammonioethylphosphorate] | > 200
CCCCCCCCCCCC(=O)CCCCCCOCC(COCCCCC[N+](C)(C)C)OC (centres undefined) [{5-[2-Methoxy-3-(7-oxo-octadecyloxy)-propoxy]-pentyl}-trimethyl-ammonium; bromide] | > 200
CCCCCCCCCCCC(CCCCCC)CCCCCCOCC(COP(=O)([O-])OCC[N+](C)(C)C)OC (centres undefined) [2-methoxy-3-(7-hexyloctadecyloxy)propyl-2-trimethylammonioethylphosphorate] | > 200
COC(COCCCCCCCCCCCCCCCCc1ccccc1)COP(=O)([O-])OCC[N+](C)(C)C (centres undefined) [2-methoxy-3-(16-phenylhexadecyloxy)propyl-2-trimethylammonioethylphosphorate] | 20
CCCCCCC(CCCCCC)CCCCCCCCCCCOCC(COP(=O)([O-])OCC[N+](C)(C)C)OC (centres undefined) [3-(12-hexyloctadecyloxy)-2-methoxypropyl-2-trimethylammonioethylphosphorate] | 1.5
CCCCCCCCC(CCCCCCOCC(COP(=O)([O-])OCC[N+](C)(C)C)OC)c1ccccc1 (centres undefined) [2-methoxy-3-(7-phenylpentadecyloxy)propyl-2-trimethylammonioethylphosphorate] | > 200
